Measured values: the supplement of paper PMC12076712

What was measured:
Test in all cases: pIC50, kinobeads binding competition
Conditions in all cases: cell material: Jurkat lysate
HIPK1 = HIPK1 (UniProt Q86Z02)
IRAK4 = target: T1, IRAK4 (UniProt Q9NWZ3)
T1 sequence (whole entry): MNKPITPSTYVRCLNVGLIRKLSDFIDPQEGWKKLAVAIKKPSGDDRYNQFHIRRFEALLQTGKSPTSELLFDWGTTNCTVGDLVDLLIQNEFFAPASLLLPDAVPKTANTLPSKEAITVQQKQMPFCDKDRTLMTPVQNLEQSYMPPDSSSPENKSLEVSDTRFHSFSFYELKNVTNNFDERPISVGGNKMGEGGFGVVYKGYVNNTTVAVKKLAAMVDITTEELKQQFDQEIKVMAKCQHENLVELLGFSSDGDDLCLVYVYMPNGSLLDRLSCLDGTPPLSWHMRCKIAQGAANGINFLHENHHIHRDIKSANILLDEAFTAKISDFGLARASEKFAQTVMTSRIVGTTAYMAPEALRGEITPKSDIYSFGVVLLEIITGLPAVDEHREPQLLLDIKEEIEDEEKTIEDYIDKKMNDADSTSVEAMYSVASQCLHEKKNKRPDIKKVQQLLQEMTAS

MARK2 = MARK2 (UniProt Q7KZI7)
Sequence of MARK2 (Q7KZI7 whole entry): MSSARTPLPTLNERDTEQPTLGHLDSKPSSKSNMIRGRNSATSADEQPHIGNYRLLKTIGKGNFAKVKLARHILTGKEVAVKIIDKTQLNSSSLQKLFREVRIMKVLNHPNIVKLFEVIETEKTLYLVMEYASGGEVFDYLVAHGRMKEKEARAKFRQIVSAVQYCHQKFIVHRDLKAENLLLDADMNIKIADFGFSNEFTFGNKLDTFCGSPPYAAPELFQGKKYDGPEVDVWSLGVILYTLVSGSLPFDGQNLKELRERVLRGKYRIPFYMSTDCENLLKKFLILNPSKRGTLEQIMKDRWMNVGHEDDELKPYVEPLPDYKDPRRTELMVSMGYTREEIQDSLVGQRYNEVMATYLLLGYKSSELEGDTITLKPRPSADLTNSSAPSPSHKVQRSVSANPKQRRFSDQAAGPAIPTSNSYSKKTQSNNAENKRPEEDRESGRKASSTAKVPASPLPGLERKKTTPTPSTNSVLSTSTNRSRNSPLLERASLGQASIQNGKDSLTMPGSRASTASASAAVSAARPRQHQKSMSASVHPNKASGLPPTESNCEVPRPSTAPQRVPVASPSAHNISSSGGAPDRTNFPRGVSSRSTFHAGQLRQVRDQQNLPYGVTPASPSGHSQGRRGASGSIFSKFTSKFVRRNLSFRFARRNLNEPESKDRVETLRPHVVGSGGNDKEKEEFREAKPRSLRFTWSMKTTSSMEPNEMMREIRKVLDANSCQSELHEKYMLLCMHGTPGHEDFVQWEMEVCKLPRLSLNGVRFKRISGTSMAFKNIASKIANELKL

NEK9 = target: T2, NEK9 (UniProt Q8TD19)
T2 sequence (whole entry): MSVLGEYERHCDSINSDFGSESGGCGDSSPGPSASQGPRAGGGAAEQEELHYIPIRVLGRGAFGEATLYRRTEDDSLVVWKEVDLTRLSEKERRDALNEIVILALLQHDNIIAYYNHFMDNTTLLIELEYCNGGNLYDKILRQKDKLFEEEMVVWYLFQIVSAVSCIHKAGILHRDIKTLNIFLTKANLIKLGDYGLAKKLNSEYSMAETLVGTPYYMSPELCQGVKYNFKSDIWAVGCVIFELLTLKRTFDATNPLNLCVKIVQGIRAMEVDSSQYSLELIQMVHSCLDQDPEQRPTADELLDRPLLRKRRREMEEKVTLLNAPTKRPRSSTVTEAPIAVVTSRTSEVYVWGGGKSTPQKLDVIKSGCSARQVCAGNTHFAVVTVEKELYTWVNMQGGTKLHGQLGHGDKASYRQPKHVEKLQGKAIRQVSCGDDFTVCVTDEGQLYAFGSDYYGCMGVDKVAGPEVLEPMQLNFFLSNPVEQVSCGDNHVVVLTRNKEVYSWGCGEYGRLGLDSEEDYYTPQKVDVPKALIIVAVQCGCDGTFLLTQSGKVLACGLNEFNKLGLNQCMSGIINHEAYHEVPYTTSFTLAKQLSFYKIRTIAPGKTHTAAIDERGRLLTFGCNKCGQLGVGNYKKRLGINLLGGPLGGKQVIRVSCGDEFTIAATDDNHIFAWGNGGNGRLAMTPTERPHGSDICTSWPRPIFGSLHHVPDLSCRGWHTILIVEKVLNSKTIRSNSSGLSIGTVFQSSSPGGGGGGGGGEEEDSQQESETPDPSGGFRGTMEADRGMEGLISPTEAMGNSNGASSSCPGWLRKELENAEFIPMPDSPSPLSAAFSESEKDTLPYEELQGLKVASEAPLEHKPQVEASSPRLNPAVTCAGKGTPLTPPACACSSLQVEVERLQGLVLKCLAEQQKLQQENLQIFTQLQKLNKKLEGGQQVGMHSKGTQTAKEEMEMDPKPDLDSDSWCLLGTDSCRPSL

PRKCH = PRKCH (UniProt P24723)
UniProt O43318 = target: T3, UniProt O43318
T3 sequence (whole entry): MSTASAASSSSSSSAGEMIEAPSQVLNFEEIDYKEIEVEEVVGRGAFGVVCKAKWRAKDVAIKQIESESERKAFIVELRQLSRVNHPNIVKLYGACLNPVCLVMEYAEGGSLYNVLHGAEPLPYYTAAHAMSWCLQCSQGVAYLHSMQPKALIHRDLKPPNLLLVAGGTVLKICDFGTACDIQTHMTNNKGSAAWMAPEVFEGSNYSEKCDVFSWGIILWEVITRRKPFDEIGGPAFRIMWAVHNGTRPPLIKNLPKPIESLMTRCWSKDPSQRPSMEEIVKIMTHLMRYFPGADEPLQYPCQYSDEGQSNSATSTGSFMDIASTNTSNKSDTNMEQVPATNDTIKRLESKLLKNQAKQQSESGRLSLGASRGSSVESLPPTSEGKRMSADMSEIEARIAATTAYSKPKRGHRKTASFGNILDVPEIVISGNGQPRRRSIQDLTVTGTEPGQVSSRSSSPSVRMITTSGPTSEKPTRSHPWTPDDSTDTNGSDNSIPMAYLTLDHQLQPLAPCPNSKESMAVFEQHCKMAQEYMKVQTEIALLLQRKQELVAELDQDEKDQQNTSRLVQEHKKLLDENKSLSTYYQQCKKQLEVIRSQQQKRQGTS

UniProt O94768 = target: T4, UniProt O94768
T4 sequence (whole entry): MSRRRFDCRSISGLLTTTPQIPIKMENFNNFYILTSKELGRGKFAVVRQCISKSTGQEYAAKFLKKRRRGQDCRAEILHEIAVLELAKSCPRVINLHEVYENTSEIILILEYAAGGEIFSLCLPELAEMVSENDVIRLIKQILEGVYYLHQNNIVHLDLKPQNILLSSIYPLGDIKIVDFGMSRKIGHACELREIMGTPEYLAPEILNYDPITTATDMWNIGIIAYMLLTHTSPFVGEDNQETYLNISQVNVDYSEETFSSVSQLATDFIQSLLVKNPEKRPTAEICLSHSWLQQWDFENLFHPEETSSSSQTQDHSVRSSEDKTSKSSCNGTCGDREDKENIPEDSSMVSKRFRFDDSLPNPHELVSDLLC

UniProt O95747 = target: UniProt O95747
UniProt P80192 = target: UniProt P80192
UniProt Q5VT25 = target: UniProt Q5VT25
Sequence of UniProt Q5VT25 (Q5VT25 whole entry): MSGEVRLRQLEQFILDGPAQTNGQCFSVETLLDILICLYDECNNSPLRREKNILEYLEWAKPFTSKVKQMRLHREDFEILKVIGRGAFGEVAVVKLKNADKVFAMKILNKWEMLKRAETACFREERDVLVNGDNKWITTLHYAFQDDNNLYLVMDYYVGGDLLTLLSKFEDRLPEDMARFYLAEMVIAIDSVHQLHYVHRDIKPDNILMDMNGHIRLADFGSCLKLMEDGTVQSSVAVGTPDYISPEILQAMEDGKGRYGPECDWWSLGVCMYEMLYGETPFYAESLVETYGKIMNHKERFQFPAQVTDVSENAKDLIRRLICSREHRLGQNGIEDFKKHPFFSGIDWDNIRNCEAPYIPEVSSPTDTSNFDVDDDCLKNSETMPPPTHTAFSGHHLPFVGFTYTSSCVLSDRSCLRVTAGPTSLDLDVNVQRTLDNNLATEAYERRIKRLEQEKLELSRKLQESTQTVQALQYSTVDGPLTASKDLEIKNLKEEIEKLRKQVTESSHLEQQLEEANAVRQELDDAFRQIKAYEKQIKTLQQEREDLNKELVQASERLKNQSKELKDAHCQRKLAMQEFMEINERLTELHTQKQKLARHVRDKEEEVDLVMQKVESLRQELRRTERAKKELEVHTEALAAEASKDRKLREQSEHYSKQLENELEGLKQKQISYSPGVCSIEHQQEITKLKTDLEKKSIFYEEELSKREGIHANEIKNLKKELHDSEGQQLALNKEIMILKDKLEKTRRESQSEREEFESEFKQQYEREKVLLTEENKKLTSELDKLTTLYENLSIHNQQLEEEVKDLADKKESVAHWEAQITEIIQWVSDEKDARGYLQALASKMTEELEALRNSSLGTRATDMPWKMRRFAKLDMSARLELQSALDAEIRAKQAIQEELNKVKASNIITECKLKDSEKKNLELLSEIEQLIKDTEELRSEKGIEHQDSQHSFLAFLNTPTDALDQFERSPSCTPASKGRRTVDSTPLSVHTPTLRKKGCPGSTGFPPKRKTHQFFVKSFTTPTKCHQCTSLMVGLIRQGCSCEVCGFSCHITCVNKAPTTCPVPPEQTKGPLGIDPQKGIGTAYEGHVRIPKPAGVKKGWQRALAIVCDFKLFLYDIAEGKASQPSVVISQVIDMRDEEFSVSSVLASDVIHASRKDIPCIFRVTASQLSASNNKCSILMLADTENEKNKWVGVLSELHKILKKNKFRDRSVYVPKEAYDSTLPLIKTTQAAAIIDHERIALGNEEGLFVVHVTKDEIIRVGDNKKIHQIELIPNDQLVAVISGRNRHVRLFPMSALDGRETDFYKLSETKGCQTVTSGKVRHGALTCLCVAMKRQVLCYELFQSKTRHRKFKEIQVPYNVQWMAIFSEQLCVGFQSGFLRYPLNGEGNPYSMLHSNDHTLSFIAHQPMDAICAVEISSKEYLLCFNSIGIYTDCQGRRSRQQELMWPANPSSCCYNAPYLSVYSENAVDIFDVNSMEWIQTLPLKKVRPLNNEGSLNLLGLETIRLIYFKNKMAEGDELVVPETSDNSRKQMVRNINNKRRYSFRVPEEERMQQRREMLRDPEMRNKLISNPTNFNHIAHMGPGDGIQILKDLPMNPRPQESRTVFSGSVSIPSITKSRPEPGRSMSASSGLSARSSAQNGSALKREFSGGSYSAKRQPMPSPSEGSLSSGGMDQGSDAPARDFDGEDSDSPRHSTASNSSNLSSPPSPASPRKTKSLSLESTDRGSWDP

UniProt Q8N4C8 = target: UniProt Q8N4C8
Sequence of UniProt Q8N4C8 (Q8N4C8 whole entry, looked up): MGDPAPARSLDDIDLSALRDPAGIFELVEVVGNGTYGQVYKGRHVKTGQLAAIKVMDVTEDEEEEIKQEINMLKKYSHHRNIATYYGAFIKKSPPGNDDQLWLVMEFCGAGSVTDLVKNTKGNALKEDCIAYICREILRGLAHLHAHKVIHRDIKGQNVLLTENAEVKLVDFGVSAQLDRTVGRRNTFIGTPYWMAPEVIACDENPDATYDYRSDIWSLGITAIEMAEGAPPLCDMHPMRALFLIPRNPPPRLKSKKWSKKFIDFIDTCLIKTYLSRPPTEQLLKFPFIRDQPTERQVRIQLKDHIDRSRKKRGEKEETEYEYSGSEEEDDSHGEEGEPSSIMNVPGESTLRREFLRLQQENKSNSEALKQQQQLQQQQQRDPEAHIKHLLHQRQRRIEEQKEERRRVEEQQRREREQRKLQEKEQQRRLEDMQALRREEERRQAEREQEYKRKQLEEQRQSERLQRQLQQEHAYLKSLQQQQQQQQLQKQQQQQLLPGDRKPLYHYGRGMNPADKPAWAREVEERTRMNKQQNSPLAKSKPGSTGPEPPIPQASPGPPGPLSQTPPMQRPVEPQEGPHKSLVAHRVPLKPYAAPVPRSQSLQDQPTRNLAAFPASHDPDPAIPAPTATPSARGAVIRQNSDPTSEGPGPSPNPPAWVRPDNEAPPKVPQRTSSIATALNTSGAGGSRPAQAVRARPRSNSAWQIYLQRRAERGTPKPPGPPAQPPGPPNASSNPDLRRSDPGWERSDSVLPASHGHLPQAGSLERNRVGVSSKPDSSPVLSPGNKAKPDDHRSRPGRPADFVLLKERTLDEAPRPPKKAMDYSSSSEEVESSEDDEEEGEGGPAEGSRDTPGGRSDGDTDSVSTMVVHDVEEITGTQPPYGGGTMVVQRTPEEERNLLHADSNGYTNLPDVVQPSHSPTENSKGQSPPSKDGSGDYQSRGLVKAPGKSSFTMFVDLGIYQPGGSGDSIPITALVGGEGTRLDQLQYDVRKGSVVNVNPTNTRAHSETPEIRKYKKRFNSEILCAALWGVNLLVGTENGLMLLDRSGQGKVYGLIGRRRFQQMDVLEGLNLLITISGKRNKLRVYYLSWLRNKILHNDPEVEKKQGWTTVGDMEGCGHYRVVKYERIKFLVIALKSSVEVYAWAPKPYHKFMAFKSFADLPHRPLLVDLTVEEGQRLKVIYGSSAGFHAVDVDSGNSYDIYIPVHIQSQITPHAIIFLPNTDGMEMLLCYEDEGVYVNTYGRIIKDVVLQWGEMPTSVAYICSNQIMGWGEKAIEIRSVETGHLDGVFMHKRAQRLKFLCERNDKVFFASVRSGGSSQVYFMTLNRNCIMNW

Sequence of HIPK1 (Q86Z02 whole entry, looked up): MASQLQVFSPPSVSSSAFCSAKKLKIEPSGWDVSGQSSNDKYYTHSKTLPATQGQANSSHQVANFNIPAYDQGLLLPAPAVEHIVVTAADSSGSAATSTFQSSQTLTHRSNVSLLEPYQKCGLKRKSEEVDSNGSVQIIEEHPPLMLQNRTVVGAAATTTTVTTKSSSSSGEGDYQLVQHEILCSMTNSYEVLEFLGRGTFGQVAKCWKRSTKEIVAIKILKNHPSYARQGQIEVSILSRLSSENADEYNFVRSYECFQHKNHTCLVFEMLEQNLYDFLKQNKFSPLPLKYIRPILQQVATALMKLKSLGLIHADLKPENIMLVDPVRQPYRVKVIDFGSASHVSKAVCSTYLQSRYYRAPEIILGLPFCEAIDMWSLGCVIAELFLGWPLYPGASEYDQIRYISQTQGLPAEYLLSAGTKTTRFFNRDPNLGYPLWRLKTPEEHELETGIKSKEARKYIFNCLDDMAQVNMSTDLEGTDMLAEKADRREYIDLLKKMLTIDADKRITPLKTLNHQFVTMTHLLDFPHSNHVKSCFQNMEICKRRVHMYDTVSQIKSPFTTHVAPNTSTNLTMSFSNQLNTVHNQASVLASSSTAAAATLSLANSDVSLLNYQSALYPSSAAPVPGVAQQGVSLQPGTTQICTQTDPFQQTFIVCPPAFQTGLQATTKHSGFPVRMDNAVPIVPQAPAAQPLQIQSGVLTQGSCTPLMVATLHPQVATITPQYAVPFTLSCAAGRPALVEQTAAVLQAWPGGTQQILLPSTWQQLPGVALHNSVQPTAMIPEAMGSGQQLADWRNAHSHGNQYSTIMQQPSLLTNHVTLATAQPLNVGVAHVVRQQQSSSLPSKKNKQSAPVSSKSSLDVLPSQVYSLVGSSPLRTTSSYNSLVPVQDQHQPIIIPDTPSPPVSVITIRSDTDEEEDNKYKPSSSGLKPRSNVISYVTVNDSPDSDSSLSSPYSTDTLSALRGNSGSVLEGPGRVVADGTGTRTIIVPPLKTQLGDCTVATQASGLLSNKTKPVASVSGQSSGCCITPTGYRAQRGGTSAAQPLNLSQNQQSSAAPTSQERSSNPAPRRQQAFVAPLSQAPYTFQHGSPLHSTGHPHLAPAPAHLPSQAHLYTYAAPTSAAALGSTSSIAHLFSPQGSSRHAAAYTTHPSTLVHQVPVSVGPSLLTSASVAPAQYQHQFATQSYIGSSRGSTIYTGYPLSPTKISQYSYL

pIC50 (HIPK1): 4.77
pIC50 (IRAK4): < 4.52
pIC50 (MARK2): < 4.52
pIC50 (PRKCH): < 4.52
pIC50 (UniProt O43318): < 4.52
pIC50 (UniProt O94768): < 4.52
pIC50 (UniProt O95747): < 4.52
pIC50 (UniProt P80192): < 4.52
pIC50 (UniProt Q5VT25): < 4.52
pIC50 (UniProt Q8N4C8): < 4.52
Structure (SMILES): CCc1cnn2c(NCc3ccc[n+]([O-])c3)cc(N3CCCC[C@H]3CCO)nc12 [dinaciclib]
pIC50 (NEK9): < 4.52
